Test results from US9249356B2, “Liquid crystal dye mixture” (PEER+ B.V., priority 2011, dated 2016).

Experiments:
Type in all cases: physicochemical
[1] = Fluorescence / quantum yield
Source text: As a fourth requirement, the fluorescent dichroic dye should have high quantum efficiency. The quantum efficiency is the ratio of emitted photons to absorbed photons of the dye. The higher the quantum efficiency of the dye, the better the dye fluoresces. A good fluorescent dye has a quantum efficiency of at least 0.5, but preferably close to 1.

[2] = Dichroic ratio in a liquid crystal host
Source text: The purpose of these LC-dye mixtures is to be able to control the absorption or fluorescence emission (or both) of light by the dye. A measure of how well the absorption can be controlled is the dichroic ratio of the dye in the LC mixture. The dichroic ratio is the ratio in absorption for light coming in parallel to the absorption axis of the molecule (A∥) versus light traveling perpendicular to the absorption axis (A—|—):
DR=A∥/A—|—. Another way of expressing the same property is the order parameter (S), which is defined as […]

[3] = Solubility in fluorinated liquid crystal
Light fastness = conditions: in words
Source text: As a third requirement, a high light stability of the dye is desirable. A high light stability allows a long lifetime of the devices in high power conditions such as sunlight, lasers or interior lighting.

[4] = Peak absorption and order parameter of Lumogen dyes in nematic liquid crystal
Source text: Light fast rylene type dyes are commercially sold by BASF under the name Lumogen.

[5] = Maximum solubility in nematic liquid crystal mixture MLC6653; conditions: nematic LC (MLC6653 named)
Source text: As is apparent from the table above, these dyes suffer from a low order parameter. The Lumogen IR 765 and Lumogen IR788 have poor fluorescence and have no significant solubility (<<0.1 wt %) in commercial liquid crystal mixture MLC6653 from (Merck Darmstadt), a nematic liquid crystal mixture with positive dielectric anisotropy and a positive delta n.

SMILES	quantum yield ([1]; apolar solvents (cyclohexane))	dichroic ratio [2]	solubility [3]	light fastness (Light fastness)	Peak absorption ([4]; in nematic LC)	order parameter in nematic LC ([4]; nematic LC)	maximum solubility [5]	fluorescence ([1]; in words)
CCCCCCC(CCCCCC)N1C(=O)c2ccc3c4ccc5c6c(ccc(c7ccc(c2c37)C1=O)c64)C(=O)N(c1ccc(-c2ccc3c4ccc6c7c(ccc(c8cccc2c83)c74)C(=O)N(c2c(C(C)C)cccc2C(C)C)C6=O)cc1)C5=O [PBI-PMI, 2-(4-(2-(2,6-diisopropylphenyl)-1,3-dioxo-2,3-dihydro-1H-benzo[5,10]anthra[2,1,9-def]isoquinolin-8-yl)phenyl)-9-(tridecan-7-yl)anthra[2,1,9-def:6,5,10-d′e′f′]diisoquinoline-1,3,8,10(2H,9H)-tetraone]	0.77	14	> 0.2 wt %	comparable to the lightfastness of the single perylene bisimide	–	–	–	–
CC(C)c1cccc(C(C)C)c1N1C(=O)c2cc(Oc3ccccc3)c3c4c(Oc5ccccc5)cc5c6c(cc(Oc7ccccc7)c(c7c(Oc8ccccc8)cc(c2c37)C1=O)c64)C(=O)N(c1c(C(C)C)cccc1C(C)C)C5=O [Lumogen F red 305]	–	–	–	–	577.5 nm	−0.12	0.2 wt %	–
CCCCCCCCCCCCC1(CCCCCCCCCCCC)c2cc(N3C(=O)c4ccc5c6ccc7c8c(ccc(c9ccc(c4c59)C3=O)c86)C(=O)N(C(CCCCCC)CCCCCC)C7=O)ccc2-c2ccc(N3C(=O)c4ccc5c6ccc7c8c(ccc(c9ccc(c4c59)C3=O)c86)C(=O)N(C(CCCCCC)CCCCCC)C7=O)cc21 [PFP]	–	12	0.2 wt %	good	–	–	–	good
